Reference: publication PMC8708274, “Unveiling the Membrane and Cell Wall Action of Antimicrobial Cyclic Lipopeptides: Modulation of the Spectrum of Activity” (Pharmaceutics, 2021)
Where two headings read alike, the source gives them in different places. Positions of bridges follow the written chain, without caps; N, C: chain ends. Non-standard residues stand in square brackets, D forms with d. Residues, ends and D or L forms follow the SMILES beside them. *: point of attachment. dAoc(2) = CCCCCC[C@@H](N)C(=O)O; X1 = CC[C@H](C)CCCCC(=O)*; Heptanoyl = CCCCCCC(=O)*; Nle = CCCC[C@H](N)C(=O)O; Dab = NCC[C@H](N)C(=O)O

Assays:
[1] = Kinetics of insertion into monolayers; type: binding; settings: 25 min after injection, 10 mM Tris pH 7.4, 25 °C, average of three independent experiments (error < 10%); for Increase in surface pressure (Δπ), POPE/POPG: POPE/POPG 6:4, initial pressure 32 mN·m^−1, peptide 0.48 μM
Procedure: (§1) Monolayer studies were performed at room temperature (25 °C) on a monolayer system (NIMA Technology, Coventry, UK) by using a cylindrical PTFE (Teflon®, Wilmington, DE, USA) trough (5 cm diameter) containing a continuously stirred aqueous phase (12 mL, 10 mM Tris pH 7.4) and a Wilhelmy platinum plate connected to an electrobalance. The system was enclosed in a Plexiglass box to reduce surface contamination, and before each run, the plate and the trough were cleaned with hot water at >70 °C to avoid carryover of lipid or peptide. Monolayers of POPG, POPE/POPG (6:4), POPC, or LPS were formed by applying small drops of the lipid stock solutions in CHCl3 on the aqueous subphase with a microsyringe (Hamilton Co., Reno, NV, USA) to achieve a surface pressure of 32 mN·m^−1. After 10 min, allowing for solvent evaporation, a known aliquot of peptide was added without disturbance of the monolayer via an inlet port, and the surface pressure was continuously monitored.

[2] = FRET lipid mixing (NBD-PE/Rh-PE); settings: 1:1 vesicles with 0.6% NBD-PE or Rh-PE, total lipid 107 μM, 25 °C, 10 mM Tris pH 7.4
Procedure: (§2) Large unilamellar vesicles (LUVs) of POPG, POPE/POPG (6:4), or POPC, alone or with the fluorescently labeled phospholipids NBD-PE or Rh-PE, were prepared by the evaporation of a mixture of the lipids and probes in CHCl3. The solvent was removed by a gentle stream of nitrogen gas followed by overnight storage under vacuum. The dried films were hydrated with Tris 10 mM pH 7.4 to the desired final lipid concentration and then sonicated in a bath type sonicator (Lab Supplies, Hickesville, NY, Model G112SPIT) until a clear dispersion was obtained (typically 3–5 min). […] The average diameter was determined by dynamic light scattering with a Malvern II-C Autosizer, with a z-diameter between 111 and 117 nm, and a polydispersity of 0.1. […] Moreover, they contained 0.2% Rh-PE for monitoring the fluorescence before and after the separation of the unencapsulated material, which was carried out by gel filtration on a Sephadex G-50 column eluted with 10 mM Tris 80 mM NaCl. In this way, the final lipid concentration was calculated taking into account the loss of lipid and the dilution of the sample.
Peptide-induced lipid mixing of vesicles of different composition was investigated in the same spectrofluorimeter, measuring the increase in fluorescence resonance energy transfer (FRET) from an NBD-PE donor population to an Rh-PE acceptor population. […]

[3] = Kinetics of insertion into monolayers; type: binding, Salmonella enterica serotype Minnesota Re 595; settings: initial pressure 32 mN·m^−1, peptide 0.48 μM, 25 min after injection, 10 mM Tris pH 7.4, 25 °C, average of three independent experiments (error < 10%)
Procedure: as §1

[4] = system: fresh rabbit erythrocytes; assay: Hemolysis assay; type: cell-based; settings: 335 μM lipopeptide, 1 h at 37 °C, 10 mM Tris 80 mM NaCl pH 7.4, absorbance 540 nm, average of three independent experiments
Procedure: Hemolytic activity was evaluated on fresh rabbit erythrocytes collected in EDTA collection tubes, as previously described. Briefly, an erythrocite suspension in buffer (10 mM Tris, 80 mM NaCl pH 7.4) was obtained by centrifugation (three times, 10 min at 4000 rpm) and adjusted at an optical density of 1 at 540 nm. Aliquots of 200 µL were incubated for 1 h at 37 °C with the different lipopeptides in 96-well polypropylene microtiter plates and centrifuged (15 min, 5000 rpm). Lipopetide-induced hemolysis was determined by measuring the absorbance at 540 nm of released hemoglobin (Asample) in the supernatant. Each determination was done by triplicate, and as negative and positive controls, erythrocytes in buffer (A0%) and in distilled water (A100%) were employed, respectively. Hemolysis was calculated according the following equation: % hemolysis = 100 · (Asample − A0%/A100% − A0%).

[5] = system: Pseudomonas aeruginosa ATTC 27853; type: cell-based
Procedure: (§3) The minimal peptide concentration required to prevent the growth of a given test organism was determined after incubation overnight at 37 °C and was defined as the MIC. Activity was determined in representative bacteria, Escherichia coli ATTC 25922, Pseudomonas aeruginosa ATTC 27853, and Staphylococcus aureus ATTC 25923, using the broth microdilution method. Serial-two-fold dilutions of peptide (from 0.06 to 32 μg/mL) were performed in Mueller–Hinton broth (MHB) culture medium in sterile 96-well polypropylene microtiter plates inoculated with a final concentration of 5 × 10^5 CFU·mL^−1 of bacteria in each well. Bacteria were in the pre-exponential phase. Each determination was done by triplicate. In order to be considered acceptable, the three MIC results have to differ in only in one well, and the result was always given as the higher of the three. Drug-free and microorganism-free wells were used as positive and negative controls, respectively. Bacterial growth was visually determined on the basis of turbidity.

[6] = system: Staphylococcus aureus ATTC 25923; type: cell-based
Procedure: as §3

[7] = system: Escherichia coli ATTC 25922; type: cell-based
Procedure: as §3

[8] = system: E. coli; assay: Transmission electron microscopy of treated bacteria; type: cell-based, Escherichia coli; settings: 1xMIC, 2 h, room temperature, tryptone water
Procedure: (§4) Then, 500 µL of this culture were added to 50 mL of tryptone water for a concentration of ≈10^8 bacteria·mL^−1. Aliquots of 10 mL were incubated with the lipopeptide at the desired concentration for 2 h at room temperature, and bacterial cells were collected by centrifugation (12,857 g, 20 min). Samples were fixed with 2.5% glutaraldehyde in phosphate buffer for 2 h at 4 °C, washed with the same buffer, and post fixed with 1% osmium tetroxide in buffer containing 0.8% potassium ferricyanide at 4 °C. Then, the samples were dehydrated for 1 h in acetone, infiltrated in a graded series of Epon resin (Ted pella, Inc., Redding, CA, USA) during 2 days, and finally embedded in fresh Epon resin and polymerized at 60 °C during 48 h. Ultrathin sections were obtained using a Leica Ultracut UCT ultramicrotome (Leica, Vienna, Austria) and mounted on Formvar-coated copper grids. Sections were stained with 2% aqueous uranyl acetate and lead citrate and examined in a JEM-1010 electron microscope (Jeol, Tokyo, Japan).

[9] = system: P. aeruginosa; assay: as above; type: cell-based, Pseudomonas aeruginosa; settings: 1xMIC, 2 h, room temperature, tryptone water
Procedure: as §4

[10] = ANTS/DPX vesicle leakage; settings: 0.9 µM peptide (0.8% peptide mol fraction), lipid 107 µM, 25 °C, 10 mM Tris pH 7.4, ANTS fluorescence
Procedure: as §2
To assess the leakage of co-encapsulated ANTS and DPX vesicles due to their interaction with peptides, fluorescence measurements were carried out at 25 °C in 1.5 mL 10 mM Tris buffer pH 7.4 on a SLM-Aminco AB-2 spectrofluorimeter with constant stirring. […]

[11] = initial pressure 32 mN·m^−1, peptide 0.48 μM
[12] = broth microdilution, MHB, 5 × 10^5 CFU/mL, overnight 37 °C, triplicate, higher of the three
[13] = value in brackets, broth microdilution, MHB, overnight 37 °C, triplicate

| SMILES | Increase in surface pressure (Δπ), POPE/POPG [1] | Increase in surface pressure (Δπ), POPC [1, 11] | Increase in surface pressure (Δπ), POPG [1, 11] | lipid mixing (increase in FRET) [2] | Increase in surface pressure (Δπ), LPS [3] | hemolysis [4] | MIC PA [5, 12] | MIC PA [5, 13] | MIC SA [6, 12] | MIC SA [6, 13] | MIC EC [7, 12] | MIC EC [7, 13] | ultrastructural effect on E. coli (TEM) [8] | ultrastructural effect on P. aeruginosa (TEM) [9] | leakage from PE/PG vesicles [10] | MIC PA ([5]; ATTC 27853) | MIC SA ([6]; ATTC 25923) | MIC EC ([7]; ATTC 25922) |
| --- | --- | --- | --- | --- | --- | --- | --- | --- | --- | --- | --- | --- | --- | --- | --- | --- | --- | --- |
| CC[C@H](C)CCCCC(=O)N[C@@H](CCN)C(=O)N[C@H](C(=O)N[C@@H](CCN)C(=O)N[C@H]1CCNC(=O)[C@H]([C@@H](C)O)NC(=O)[C@H](CCN)NC(=O)[C@H](CCN)NC(=O)[C@H](CC(C)C)NC(=O)[C@@H](CC(C)C)NC(=O)[C@H](CCN)NC1=O)[C@@H](C)O [PxE, Polymyxin E, reference compound] (X1-[Dab]T[Dab][Dab][Dab][dL]L[Dab][Dab]T; lactam 4-C) | 7.9 mN·m^−1 | 0.8 mN·m^−1 | 5.3 mN·m^−1 | no representative changes | 11.1 mN·m^−1 | 13% | 0.5 µg/mL | 0.43 µM | > 32 µg/mL | > 27 µM | 1 µg/mL | 0.86 µM |  |  |  |  |  |  |
| CCCCCCC(=O)N[C@@H](CCN)C(=O)N[C@H](C(=O)N[C@@H](CCN)C(=O)N[C@H]1CSSC[C@H](C(N)=O)NC(=O)[C@H](CCN)NC(=O)[C@H](CCN)NC(=O)[C@H](CCCC)NC(=O)[C@@H](CCCCCC)NC(=O)[C@H](CCN)NC1=O)[C@@H](C)O [spE-10] (Heptanoyl-[Dab]T[Dab]C[Dab][dAoc(2)][Nle][Dab][Dab][dC]-NH2; disulfide 4-10) | 8.2 mN·m^−1 | 1.8 mN·m^−1 |  |  | 14.8 mN·m^−1 |  | 1 µg/mL |  | > 32 µg/mL |  | 8 µg/mL |  | formation of intracellular membranous structures and cytoplasmic clear zones | significant rupture of the cell membranes and cytoplasmic clear zones | no detectable leakage | 0.84 µM | > 27 µM | 6.7 µM |
